Measured values from US20100222875A1, “METHOD FOR FORMING A POROUS STENT COATING” (Abbott Cardiovascular Systems Inc., priority 2006, published 2010).

Test: in vitro drug release from a PBMA-coated stent
Assay type: physicochemical
Conditions: over 24 hours, everolimus in PBMA drug coat, drug:polymer ratio 1 to 1.25, with 40-μg PBMA topcoat (0.3 micron coating thickness) on 18-mm medium stent
Excerpt: Of import to the present invention is that a polymer's mesh size can be altered by the formation of pores within the polymer itself. One means of accomplishing this is to add such a large concentration of drug to the polymer that the drug phase separates out. Thus, during stent synthesis, drug is released, thereby forming pores within the polymer. However, a topcoat is often added to control drug release and prevent an initial bolus or burst release of drug. Unfortunately, sometimes even the thinnest topcoat that can be applied leads to a drug release that is too slow to be therapeutically effective. One example is everolimus in a PBMA drug coat with a PBMA topcoat. For example, it has been shown that a thin 40-μg PBMA topcoat on an 18-mm medium stent, i.e., a 0.3 micron coating thickness, with a drug:polymer ratio of 1 to 1.25, gave only 7.1% drug release over 24 hours in an in vitro experiment.

- drug release: 7.1%
Compound: CO[C@H]1C[C@@H]2CC[C@@H](C)[C@@](O)(O2)C(=O)C(=O)N2CCCC[C@H]2C(=O)O[C@H]([C@H](C)C[C@@H]2CC[C@@H](OCCO)[C@H](OC)C2)CC(=O)[C@H](C)/C=C(\C)[C@@H](O)[C@@H](OC)C(=O)[C@H](C)C[C@H](C)/C=C/C=C/C=C/1C [everolimus]
